BigSolDB 2.1

Cc1c(C(=O)O)cc([N+](=O)[O-])cc1[N+](=O)[O-]
solubility (mole fraction)
Settings | 288.15 K | 293.15 K | 298.15 K | 303.15 K | 308.15 K | 313.15 K | 318.15 K | 323.15 K | 328.15 K | 333.15 K
in acetonitrile | 0.0071 | 0.0084 | 0.00994 | 0.012 | 0.0145 | 0.0176 | 0.0209 | 0.0248 | 0.0292 | 0.0341
in cyclohexane | 1.4e-05 | 1.96e-05 | 2.69e-05 | 3.64e-05 | 4.87e-05 | 6.37e-05 | 8.12e-05 | 0.000103 | 0.000131 | 0.000166
in ethanol | 0.0467 | 0.0526 | 0.0604 | 0.0695 | 0.0783 | 0.0882 | 0.099 | 0.11 | 0.123 | 0.134
in ethyl acetate | 0.0237 | 0.0271 | 0.0312 | 0.0359 | 0.041 | 0.0467 | 0.0536 | 0.0611 | 0.0694 | 0.0781
in isopropanol | 0.0102 | 0.0121 | 0.0147 | 0.017 | 0.0202 | 0.0232 | 0.0276 | 0.0327 | 0.0384 | 0.0442
in n-butanol | 0.0109 | 0.0129 | 0.0152 | 0.0179 | 0.0209 | 0.0243 | 0.0284 | 0.034 | 0.0393 | 0.0457
in n-heptanol | 0.0128 | 0.0146 | 0.017 | 0.0208 | 0.025 | 0.0295 | 0.0341 | 0.0396 | 0.0458 | 0.0524
in n-hexanol | 0.00982 | 0.0114 | 0.0131 | 0.0151 | 0.0177 | 0.0208 | 0.0244 | 0.0288 | 0.0338 | 0.0394
in n-pentanol | 0.012 | 0.0138 | 0.0165 | 0.0193 | 0.0226 | 0.026 | 0.0303 | 0.0356 | 0.0414 | 0.0478
in n-propanol | 0.0126 | 0.0146 | 0.0169 | 0.0202 | 0.0239 | 0.0278 | 0.0326 | 0.0381 | 0.0442 | 0.0505
in sec-butanol | 0.0114 | 0.0134 | 0.0158 | 0.0187 | 0.0219 | 0.0257 | 0.03 | 0.0349 | 0.0405 | 0.0467
in toluene | 0.0174 | 0.0207 | 0.0242 | 0.0284 | 0.0328 | 0.0377 | 0.0434 | 0.0493 | 0.0558 | 0.0628
in water | 1.67e-05 | 2.35e-05 | 3.5e-05 | 4.55e-05 | 5.87e-05 | 7.99e-05 | 0.000108 | 0.000137 | 0.000171 | 0.000218
